The subject of test [1] is phosphorylation of Cdc2 Y15 (Wee1 substrate) in A427 cells. Kind of test: Phosphorylated Cdc2 MSD Electrochemiluminescence Assay. It is filed as cell-based. The note with it: Homo sapiens, A-427, pCDC2 MSD. Summed up: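 Read-out: percent residual phospho-Cdc2 Y15 relative to DMSO and positive-control Wee1 inhibitor, measured by MSD electrochemiluminescence capture/detection antibody assay in cell lysates. A427 cells received duplicate 3-fold compound dilution series 20 h post-seeding, with 6 h total incubation at 37 °C.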

For another test, the target named is T1, Wee1 kinase domain (Homo sapiens, UniProt P30291).
T1 construct: Wee1 kinase domain was purchased from Carna (catalog #05-177); purchased Carna 05-177
Kind of test: Wee1 Kinase Biochemical Assay (ADP-Glo). The following applies: Wee1 kinase domain, 15 uM ATP, ADP-Glo. Summed up: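 ADP-Glo detection of ADP produced after 4 h at 25° C by 1 nM Wee1 kinase domain on 2 ng/mL poly(Lys,Tyr 4:1) with 15 uM ATP. Buffer: 40 mM Tris-HCl, 20 mM MgCl2, 0.1 mg/mL BSA, 2 mM DTT. Inhibition is relative to DMSO (high) and saturating Wee1 inhibitor (low) controls.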
In general terms: ADP-Glo first removes unused ATP, then detects ADP through luciferase.

Each structure is given as a SMILES string.

In general, IC50 refers to the concentration that inhibits the measured activity by half.

T1 sequence (P30291 299-569 limits assumed): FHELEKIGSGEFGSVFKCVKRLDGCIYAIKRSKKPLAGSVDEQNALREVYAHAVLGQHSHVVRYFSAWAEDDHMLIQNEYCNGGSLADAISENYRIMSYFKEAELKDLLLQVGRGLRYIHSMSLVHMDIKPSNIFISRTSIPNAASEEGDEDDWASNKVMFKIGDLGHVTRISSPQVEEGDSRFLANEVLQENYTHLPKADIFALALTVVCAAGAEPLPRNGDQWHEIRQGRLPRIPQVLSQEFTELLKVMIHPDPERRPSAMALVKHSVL

Regarding `C[C@H]1COC(=O)N1c1cccc(N2c3nc(Nc4ccc(C5(C)COC5)cc4)ncc3[C@@]3(C)COC(C)(C)C[C@@H]23)n1` (single isomer, unassigned) [Example 303], the values for the half-inhibitory concentration (IC50) (in test [1]; on Wee1 kinase domain) were 100 to 1000 nM and below 10 nM, respectively.

Regarding `C[C@H]1COC(=O)N1c1cccc(N2c3nc(Nc4ccc([C@@H]5CCN(C)C5)cc4)ncc3[C@@]3(C)COC(C)(C)C[C@@H]23)n1` (single isomer, unassigned) [Example 305], the IC50 in test [1] is 100 to 1000 nM; on Wee1 kinase domain, below 10 nM.

In the case of `C[C@H]1COC(=O)N1c1cccc(N2c3nc(Nc4ccc([C@H]5CCN(C)C5)cc4)ncc3[C@@]3(C)COC(C)(C)C[C@@H]23)n1` (single isomer, unassigned) [Example 306], the values for the IC50 (in test [1]; at Wee1 kinase domain) were 100 to 1000 nM and below 10 nM, respectively.

In the case of `C[C@H]1COC(=O)N1c1cccc(N2c3nc(Nc4ccc(C5CNC5)cc4)ncc3[C@@]3(C)COC(C)(C)C[C@@H]23)n1` (single isomer, unassigned) [Example 310], the figures for the IC50 (in test [1]; on Wee1 kinase domain) were 100 to 1000 nM and below 10 nM, respectively.

Turning to `C[C@H]1COC(=O)N1c1cccc(N2c3nc(Nc4ccc(C5CN(C)C5)cc4)ncc3[C@@]3(C)COC(C)(C)C[C@@H]23)n1` (single isomer, unassigned) [Example 311], the figures for the IC50 (in test [1]; against Wee1 kinase domain) were 100 to 1000 nM and below 10 nM, respectively.

On to `C[C@@H]1CN(c2ccc(Nc3ncc4c(n3)N(c3cccc(N5C(=O)OC[C@@H]5C)n3)[C@@H]3CC(C)(C)OC[C@]43C)cc2)CCN1C` (single isomer, unassigned) [Example 313], for which the results for the IC50 (in test [1]; against Wee1 kinase domain) were 100 to 1000 nM and below 10 nM, respectively.

Turning to `C[C@H]1CN(c2ccc(Nc3ncc4c(n3)N(c3cccc(N5C(=O)OC[C@@H]5C)n3)[C@@H]3CC(C)(C)OC[C@]43C)cc2)CCN1C` (single isomer, unassigned) [Example 315], the IC50 in test [1] is 100 to 1000 nM; on Wee1 kinase domain, below 10 nM.

Turning to `CN[C@H]1CCN(c2ccc(Nc3ncc4c(n3)N(c3cccc(N5C(=O)OC[C@@H]5C)n3)[C@@H]3CC(C)(C)OC[C@]43C)cc2)C1` (single isomer, unassigned) [Example 317], the IC50 in test [1] is 100 to 1000 nM; against Wee1 kinase domain it was below 10 nM.

Turning to `CN[C@@H]1CCN(c2ccc(Nc3ncc4c(n3)N(c3cccc(N5C(=O)OC[C@@H]5C)n3)[C@@H]3CC(C)(C)OC[C@]43C)cc2)C1` (single isomer, unassigned) [Example 319], the values for the IC50 (in test [1]; at Wee1 kinase domain) were 100 to 1000 nM and below 10 nM, respectively.

As to `CN[C@@H](Cc1ccc(Nc2ncc3c(n2)N(c2cccc(N4C(=O)OC[C@@H]4C)n2)[C@@H]2CC(C)(C)OC[C@]32C)cc1)C(=O)O` (single isomer, unassigned) [Example 321], the IC50 in test [1] was 100 to 1000 nM; against Wee1 kinase domain it was below 10 nM.

For the molecule `CN[C@H](Cc1ccc(Nc2ncc3c(n2)N(c2cccc(N4C(=O)OC[C@@H]4C)n2)[C@@H]2CC(C)(C)OC[C@]32C)cc1)C(=O)O` (single isomer, unassigned) [Example 323], the results for the IC50 (in test [1]; against Wee1 kinase domain) were 100 to 1000 nM and below 10 nM, respectively.

As to `C[C@H]1COC(=O)N1c1cccc(N2c3nc(Nc4ccc(OC5CCNCC5)nc4)ncc3[C@@]3(C)COC(C)(C)C[C@@H]23)n1` (single isomer, unassigned) [Example 325], the IC50 in test [1] is 100 to 1000 nM; against Wee1 kinase domain it was below 10 nM.

Regarding `C[C@H]1COC(=O)N1c1cccc(N2c3nc(Nc4ccc(O[C@@H]5CCNC5)cc4)ncc3[C@@]3(C)COC(C)(C)C[C@@H]23)n1` (single isomer, unassigned) [Example 327], the IC50 in test [1] was 100 to 1000 nM; against Wee1 kinase domain, below 10 nM.

Turning to `C[C@H]1COC(=O)N1c1cccc(N2c3nc(Nc4ccc(O[C@H]5CCNC5)cc4)ncc3[C@@]3(C)COC(C)(C)C[C@@H]23)n1` (single isomer, unassigned) [Example 329], the IC50 was 100 to 1000 nM in test [1] and below 10 nM against Wee1 kinase domain.

With `C[C@H]1COC(=O)N1c1cccc(N2c3nc(Nc4ccc(O[C@@H]5CCN(C)C5)cc4)ncc3[C@@]3(C)COC(C)(C)C[C@@H]23)n1` (single isomer, unassigned) [Example 331], the IC50 is 100 to 1000 nM in test [1] and below 10 nM against Wee1 kinase domain.

`C[C@H]1COC(=O)N1c1cccc(N2c3nc(Nc4ccc(O[C@H]5CCN(C)C5)cc4)ncc3[C@@]3(C)COC(C)(C)C[C@@H]23)n1` (single isomer, unassigned) [Example 333]: the IC50 in test [1] is 100 to 1000 nM; against Wee1 kinase domain, below 10 nM.

As to `C[C@H]1COC(=O)N1c1cccc(N2c3nc(Nc4ccc(OC5CCN(C)CC5)nc4)ncc3[C@@]3(C)COC(C)(C)C[C@@H]23)n1` (single isomer, unassigned) [Example 335], the IC50 in test [1] is below 100 nM; against Wee1 kinase domain, below 10 nM.

Consider `Cc1cc(Nc2ncc3c(n2)N(c2cccc(N4C(=O)OC[C@@H]4C)n2)[C@@H]2CC(C)(C)OC[C@]32C)ccc1O[C@@H]1CCNC1` (single isomer, unassigned) [Example 337], for which the figures for the IC50 (in test [1]; at Wee1 kinase domain) were 100 to 1000 nM and below 10 nM, respectively.

For the molecule `Cc1cc(Nc2ncc3c(n2)N(c2cccc(N4C(=O)OC[C@@H]4C)n2)[C@@H]2CC(C)(C)OC[C@]32C)ccc1O[C@H]1CCNC1` (single isomer, unassigned) [Example 339], the IC50 in test [1] is 100 to 1000 nM; on Wee1 kinase domain it was below 10 nM.

On to `C[C@H]1COC(=O)N1c1cccc(N2c3nc(Nc4ccn(C)c(=O)c4)ncc3[C@@]3(C)COC(C)(C)C[C@@H]23)n1` (single isomer, unassigned) [Example 341], for which the IC50 is 100 to 1000 nM in test [1] and below 10 nM against Wee1 kinase domain.

Consider `C[C@H]1COC(=O)N1c1cccc(N2c3nc(Nc4ccc(OC5CNC5)nc4)ncc3[C@@]3(C)COC(C)(C)C[C@@H]23)n1` (single isomer, unassigned) [Example 343], for which the figures for the IC50 (in test [1]; against Wee1 kinase domain) were 100 to 1000 nM and below 10 nM, respectively.

Take `Cc1cc(Nc2ncc3c(n2)N(c2cccc(N4C(=O)OC[C@@H]4C)n2)[C@@H]2CC(C)(C)OC[C@]32C)ccc1O[C@H]1CCN(C)C1` (single isomer, unassigned) [Example 345]: the results for the IC50 (in test [1]; against Wee1 kinase domain) were 100 to 1000 nM and below 10 nM, respectively.

Regarding `Cc1cc(Nc2ncc3c(n2)N(c2cccc(N4C(=O)OC[C@@H]4C)n2)[C@@H]2CC(C)(C)OC[C@]32C)ccc1O[C@@H]1CCN(C)C1` (single isomer, unassigned) [Example 347], the IC50 was 100 to 1000 nM in test [1] and below 10 nM on Wee1 kinase domain.

Take `C[C@H]1COC(=O)N1c1cccc(N2c3nc(Nc4ccc([C@@]5(C)CCN(C)C5)cc4)ncc3[C@@]3(C)COC(C)(C)C[C@@H]23)n1` (single isomer, unassigned) [Example 349]: the IC50 in test [1] was 100 to 1000 nM; against Wee1 kinase domain, below 10 nM.

Consider `C[C@H]1COC(=O)N1c1cccc(N2c3nc(Nc4ccc([C@]5(C)CCN(C)C5)cc4)ncc3[C@@]3(C)COC(C)(C)C[C@@H]23)n1` (single isomer, unassigned) [Example 351], for which the IC50 in test [1] is below 100 nM; at Wee1 kinase domain, below 10 nM.

In the case of `C[C@H]1COC(=O)N1c1cccc(N2c3nc(Nc4ccc(N5C[C@H]6C[C@@H](C5)N6C)cc4)ncc3[C@@]3(C)COC(C)(C)C[C@@H]23)n1` (single isomer, unassigned) [Example 352], the IC50 is 100 to 1000 nM in test [1] and below 10 nM at Wee1 kinase domain.

Take `C[C@H]1COC(=O)N1c1cccc(N2c3nc(Nc4ccc(N5CC6(CN(C)C6)C5)cc4)ncc3[C@@]3(C)COC(C)(C)C[C@@H]23)n1` (single isomer, unassigned) [Example 355]: the IC50 in test [1] was 100 to 1000 nM; at Wee1 kinase domain, below 10 nM.

For the molecule `CNCc1ccc(Nc2ncc3c(n2)N(c2cccc(N4C(=O)OC[C@@H]4C)n2)[C@@H]2CC(C)(C)OC[C@]32C)cc1` (single isomer, unassigned) [Example 360], the IC50 in test [1] is 100 to 1000 nM; on Wee1 kinase domain, below 10 nM.

`Cn1ccc(Nc2ncc3c(n2)N(c2cccc(N=S(C)(C)=O)n2)[C@@H]2CC(C)(C)OC[C@]32C)cc1=O` (single isomer, unassigned) [Example 363]: the concentration for half-maximal inhibition (IC50) in test [1] was 100 to 1000 nM; at Wee1 kinase domain it was below 10 nM.

For the molecule `Cc1ccc(Nc2ncc3c(n2)N(c2cccc(N=S(C)(C)=O)n2)[C@@H]2CC(C)(C)OC[C@]32C)nn1` (single isomer, unassigned) [Example 364], the figures for the IC50 (in test [1]; at Wee1 kinase domain) were 100 to 1000 nM and below 10 nM, respectively.

With `Cn1nc(Nc2ncc3c(n2)N(c2cccc(N=S(C)(C)=O)n2)[C@@H]2CC(C)(C)OC[C@]32C)ccc1=O` (single isomer, unassigned) [Example 365], the IC50 in test [1] is 1000 to 10000 nM; at Wee1 kinase domain, below 10 nM.

`CC1(C)C[C@H]2N(c3cccc(N=S(C)(C)=O)n3)c3nc(Nc4cnccn4)ncc3[C@@]2(C)CO1` (single isomer, unassigned) [Example 366]: the IC50 is 1000 to 10000 nM in test [1] and below 10 nM against Wee1 kinase domain.

Regarding `CC1(C)C[C@H]2N(c3cccc(N=S(C)(C)=O)n3)c3nc(Nc4cncc(F)c4)ncc3[C@@]2(C)CO1` (single isomer, unassigned) [Example 369], the figures for the IC50 (in test [1]; against Wee1 kinase domain) were 100 to 1000 nM and below 10 nM, respectively.

Turning to `Cc1cc(Nc2ncc3c(n2)N(c2cccc(N=S(C)(C)=O)n2)[C@@H]2CC(C)(C)OC[C@]32C)cnn1` (single isomer, unassigned) [Example 370], the IC50 in test [1] was 100 to 1000 nM; against Wee1 kinase domain it was below 10 nM.

With `Cc1cnc(Nc2ncc3c(n2)N(c2cccc(N=S(C)(C)=O)n2)[C@@H]2CC(C)(C)OC[C@]32C)cn1` (single isomer, unassigned) [Example 371], the IC50 in test [1] is 100 to 1000 nM; against Wee1 kinase domain, below 10 nM.

The record behind these values is US20260166039A1 (SCHRÖDINGER, INC., priority 2022, published 2026).
